From patent US9504687B2, “Treating Bax(Δ)2-positive cancer with chemotherapies targeting caspase 8” (Mumetel, LLC, priority 2013, dated 2016)
Entries after “also recorded” stand apart in the source; their conditions may differ. Where two headings read alike, the source gives them in different places. Where a SMILES comes first, the peptide text is derived from it. The star is where a group is joined. Cbz = O=C(OCc1ccccc1)*

How the values were obtained:
HCT116 clone #10 [1] = experiment: Cell death assay of clone #10 treated with 5-FU with Bid or caspase-9 inhibition; format: cell-based, human; conditions: clone #10 treated with 5-FU (500 μM); BI-6C9 10 μM; LEHD 50 μM
Experimental: FIG. 10. The Bid-dependent mitochondrial death pathway is not essential for the onset of chemodrug-induced apoptosis in BaxΔ2-positive cells. A, Immunoblotting analysis of cleaved Bid in HCT116 clone #10 and #28 cells treated with or without 5-FU (500 μM) or Adriamycin ([…]) as indicated. The intensities of truncated Bid bands were quantitated relevant to the actin control and are presented as arbitrary numbers. B, Cell death assay of HCT116 clone #10 cells treated with 5-FU (500 μM) in the presence of a Bid specific inhibitor (BI-6C9; 10 μM) or Bid siRNA. C, Cell death assay of clone #10 cells treated with 5-FU (500 μM) in the presence of a caspase-9 inhibitor (LEHD (SEQ ID NO: 7); 50 μM) or transfected with a caspase-9 dominant negative (D/N) mutant construct. D, Representative images of JC-1 staining. Carbonyl cyanide 4-(trifluoromethoxy) phenylhydrazone (FCCP; 100 μM) was used as a positive control. JC-1 monomer green fluorescence as observed by excitation with 488 nm and emission with 529 nm (top panel). JC-1 aggregate red fluorescence as observed by excitation at 546 nm and emission at 590 nm (bottom panel). […]
(§1) Caspase-8 is one of the initiator caspases in the extrinsic death receptor pathway. […] We next determined if the Bid-dependent mitochondrial death pathway was required for BaxΔ2 to promote apoptosis. […]

HCT116 clone #10 [2] = experiment: Cell death assay with chemodrug in the presence of caspase inhibitors; format: cell-based, human; conditions: clone #10 treated with 5-FU (500 μM) or Adriamycin (4 μg/ml) 24 h; inhibitors 50 μM each
Experimental: (§2) FIG. 9. BaxΔ2 promotes apoptosis through activation of caspase-8. A, Cell death assay of HCT116 clone #10 and clone #28 cells treated with or without 5-FU (500 μM) or Adriamycin (Adr, 4 μg/ml) for 24 h in the presence of inhibitors (50 μM each) for caspase-3 (DEVD) SEQ ID NO: 4), caspase-8 (IETD) (SEQ ID NO: 5), caspase-1 (YVAD) (SEQ ID NO: 6), and caspase-9 (LEHD) (SEQ ID NO: 7) as indicated. ** P<0.01. inh., inhibitor. B, Caspase-3 assay of HCT116 clone #10 and #28 cells treated as described in (A). The activity of caspase-3 was measured using fluorogenic caspase-3 substrate DEVD-AFC (SEQ ID NO: 4) (50 μM) with a microplate spectrofluorometer. C, Immunoblotting analysis for the detection of cleaved casapase-8 in the chemodrug treated clone #10 and #28 cells with an anti-cleaved caspase-8 antibody.
(§3) Bax typically targets the mitochondria upon activation and results in the activation of the caspase-9 and caspase-3 cascade for cell death. To determine the underlying mechanism by which BaxΔ2 promoted cell death, HCT116 clones #10 and #28 were treated with Adriamycin or 5-FU in the presence of different caspase inhibitors. […] The caspase-3 activity was confirmed by the caspase-3 fluorometric assay (FIG. 9B). […]

BaxΔ2 protein [3] = experiment: Immunoblotting of BaxΔ2 protein after MG-132 treatment, clone #10; format: cell-based, human; conditions: clone #10 (HCT116-BP10); MG-132 10 μM for 8 h
Experimental: (§4) FIG. 7. Generation and characterization of the isogenic subline cells with the different Bax microsatellite status. A, Schematic diagram of generating the HCT116 sublines. Cells were treated with 500 μM Indomethacin for 72 h. A single cell suspension was plated into 96-well plates without Indomethacin. Bax microsatellite statuses (G8/G8, G8/G7, or G7/G7) of each sublines were determined by genomic sequencing as described in the methods. B, RT-PCR analysis of Bax alternative splicing and BaxΔ2 production. The cDNAs were generated from HCT116 clones #10 (G7/G7 genotype) and clone #28 (G8/G7 genotype) with a set of primers that cover Bax exon 1 through exon 6, or primers specific for BaxΔ2 as described in the methods. The PCR products of Baxα and BaxΔ2 plasmid DNA were used as controls. […] Total 1×10^4 cells were seeded onto 24-well plates and the cell numbers were counted every 24 h up to 96 h. […]
(§5) We then determined the expression of endogenous BaxΔ2 proteins in the HCT116 clones #10 and #28 subline cells using a specific anti-BaxΔ2 antibody. […] Of note, both clone #10 and clone #28 had no detectable parental Baxα proteins, as analyzed by immunoblotting using several anti-Baxα antibodies (FIG. 7C and data not shown).

BaxΔ2 protein [4] = experiment: Immunoblotting of BaxΔ2 protein after MG-132 treatment, clone #28; format: cell-based, human; conditions: clone #28 (HCT116-BN28); MG-132 10 μM for 8 h
Experimental: as §4, §5

[5] = tested on: HCT116 isogenic subline clone #10 (BaxΔ2-positive); format: cell-based, human; conditions: Table 5 screening
Experimental: Colon cancer cell line HCT116 was obtained from American Type Culture Collection. The cell line was tested and authenticated by Genetica (Cincinnati. Ohio) before the experiments. Both HCT116 and Bax^−/− mouse embryonic fibroblasts (MEFs) cells were cultured in DMEM supplemented with 10% FBS. To isolate single cell population from HCT116 cells, cells were treated with 500 μM Indomethacin for 72 h to enrich Bax G7 population. Single-cell suspension was plated onto 96-well plates without Indomethacin. Single clones were recovered, expanded, and validated by both genomic sequencing and RT-PCR analysis.
However, the heterogeneity of different cell lines often adds complexity to data interpretation. […] For the initial screening, we selected a panel of different classes of commonly used chemotherapeutic drugs.

[6] = tested on: HCT116-BP10 (BaxΔ2 positive) versus HCT116-BN28 (BaxΔ2 negative) sublines; experiment: Cell death assay of HCT116 sublines treated with chemotherapeutic drugs for 36 hours; format: cell-based, human; conditions: Adriamycin (40 ug/ml) or 5-FU (500 ug/ml), compared with BaxΔ2 negative subline
Experimental: FIG. 8. […] Adr, Adriamycin; Etop, Etoposide; 5-FU, 5-fluorouracil; Contr, control.
BaxΔ2 positive (HCT116-BP10) and negative (HCT116-BN28) sublines were treated with Adriamycin (40 ug/ml) or 5-FU (500 ug/ml) for 36 hours in a regular cell culture medium. […] Both Adriamycin and Etoposide are in the same category as topoisomerase inhibitors; and both 5-FU and Cytoxan are in the same class of alkaloid drugs.

caspase-8 = experiment: Immunoblotting for cleaved caspase-8 in chemodrug treated clone #10; format: cell-based, human; conditions: 5-FU (500 μM) or Adriamycin (4 μg/ml) 24 h
Experimental: as §2, §3

Bid = experiment: Immunoblotting analysis of cleaved Bid in clone #10; format: cell-based, human; conditions: BaxΔ2-positive clone #10 cells
Experimental: FIG. 10. The Bid-dependent mitochondrial death pathway is not essential for the onset of chemodrug-induced apoptosis in BaxΔ2-positive cells. A, Immunoblotting analysis of cleaved Bid in HCT116 clone #10 and #28 cells treated with or without 5-FU (500 μM) or Adriamycin ([…]) as indicated. The intensities of truncated Bid bands were quantitated relevant to the actin control and are presented as arbitrary numbers. B, Cell death assay of HCT116 clone #10 cells treated with 5-FU (500 μM) in the presence of a Bid specific inhibitor (BI-6C9; 10 μM) or Bid siRNA. C, Cell death assay of clone #10 cells treated with 5-FU (500 μM) in the presence of a caspase-9 inhibitor (LEHD (SEQ ID NO: 7); 50 μM) or transfected with a caspase-9 dominant negative (D/N) mutant construct. D, Representative images of JC-1 staining. Carbonyl cyanide 4-(trifluoromethoxy) phenylhydrazone (FCCP; 100 μM) was used as a positive control. JC-1 monomer green fluorescence as observed by excitation with 488 nm and emission with 529 nm (top panel). JC-1 aggregate red fluorescence as observed by excitation at 546 nm and emission at 590 nm (bottom panel).
as §1

[7] = tested on: prostate cancer 104-R cells (G7/G7); conditions: previously shown; cited from earlier work
[8] = tested on: colon cancer LoVo cells (G7/G9); conditions: previously shown; cited from earlier work

Bid siRNA: Bid siRNA (5′GGGCAAAAGC UUACAAAUAUU3′) (SEQ ID NO: 47) (GGGCAAAAGCUUACAAAUAUU; listed as RNA, chemistry not given here)
Effect on chemodrug-induced apoptosis (HCT116 clone #10 [1]): did not significantly affect

Z-DEVD-FMK (N-Z, C-terminal fluoromethylketone) [caspase-3 inhibitor]
Inhibition of chemodrug-induced apoptosis (HCT116 clone #10 [2]): effectively inhibited

Z-IETD-FMK (N-Z, C-terminal fluoromethylketone) [caspase-8 inhibitor]
Inhibition of chemodrug-induced apoptosis (HCT116 clone #10 [2]): effectively inhibited

CC(C)C[C@@H](C=O)NC(=O)[C@H](CC(C)C)NC(=O)[C@H](CC(C)C)NC(=O)OCc1ccccc1 [MG-132] (Cbz-Leu-Leu-Leu-aldehyde)
Detection of BaxΔ2 proteins after treatment (BaxΔ2 protein [3]): easily detected | Detection of BaxΔ2 proteins after treatment (BaxΔ2 protein [4]): no detectable BaxΔ2 proteins

COc1cccc2c1C(=O)c1c(O)c3c(c(O)c1C2=O)C[C@@](O)(C(=O)CO)C[C@@H]3O[C@H]1C[C@H](N)[C@H](O)[C@H](C)O1 [Doxorubicin, doxorubicin]
Sensitivity of BaxΔ2-positive clone #10 compared with BaxΔ2-negative clone #28 ([5]; listed as Adriamycin): more sensitive; also recorded: selectively sensitive | Sensitivity of BaxΔ2 positive clone #10 cells to treatment (cell death assay) [6]: more sensitive | Caspase-8 activation (cleaved caspase-8 fragments 43 kDa and 18 kDa) (caspase-8): activated | Bid degradation (cleaved Bid) (Bid): partially degraded | Sensitivity to treatment compared with cancer cells with wild type Bax [7]: more sensitive | Sensitivity to treatment compared with cancer cells with wild type Bax [8]: more sensitive

O=c1[nH]cc(F)c(=O)[nH]1 [5-FU, 5-Fluorouracil]
Sensitivity of BaxΔ2-positive clone #10 compared with BaxΔ2-negative clone #28 [5]: highly sensitive; also recorded: selectively sensitive | Sensitivity of BaxΔ2 positive clone #10 cells to treatment (cell death assay) [6]: more sensitive | Caspase-8 activation (cleaved caspase-8 fragments 43 kDa and 18 kDa) (caspase-8): activated | Bid degradation (cleaved Bid) (Bid): partially degraded
